“And” between values parts separate entries of the source, which are not always exact repeats. Identical values can stand only once.
Legend:
Assay in all cases: radiometric filter-binding kinase assay, Kinase HotSpot
Conditions in all cases: compound 0.5 µM; ATP 10 µM
CAMK1D (human) = CAMK1D (human) (UniProt Q8IU85)
CAMK1G (human) = CAMK1G (human) (UniProt Q96NX5)
CAMKK1 (human) = CAMKK1 (human) (UniProt Q8N5S9)
CAMKK2 (human) = CAMKK2 (human) (UniProt Q96RR4)
CSNK1D (human) = CSNK1D (human) (UniProt P48730)
CSNK1G2 (human) = CSNK1G2 (human) (UniProt P78368)
CSNK2A1 (human) = CSNK2A1 (human) (UniProt P68400)
DYRK4 (human) = DYRK4 (human) (UniProt Q9NR20)
EPHA2 (human) = EPHA2 (human) (UniProt P29317)
FGFR3 (human) = FGFR3 (human) (UniProt P22607)
GRK6 (human) = GRK6 (human) (UniProt P43250)
HIPK1 (human) = HIPK1 (human) (UniProt Q86Z02)
LIMK1 (human) = LIMK1 (human) (UniProt P53667)
LTK (human) = LTK (human) (UniProt P29376)
LYN (human) = LYN (human) (UniProt P07948)
MAPK11 (human) = MAPK11 (human) (UniProt Q15759)
MAPK14 (human) = MAPK14 (human) (UniProt Q16539)
MST1R (human) = MST1R (human) (UniProt Q04912)
NEK1 (human) = NEK1 (human) (UniProt Q96PY6)
NEK11 (human) = NEK11 (human) (UniProt Q8NG66)
NEK9 (human) = NEK9 (human) (UniProt Q8TD19)
PAK3 (human) = PAK3 (human) (UniProt O75914)
PAK6 (human) = PAK6 (human) (UniProt Q9NQU5)
PIM3 (human) = PIM3 (human) (UniProt Q86V86)
PLK1 (human) = PLK1 (human) (UniProt P53350)
PRKCA (human) = PRKCA (human) (UniProt P17252)
PRKCH (human) = PRKCH (human) (UniProt P24723)
PRKG2 (human) = PRKG2 (human) (UniProt Q13237)
ROCK2 (human) = ROCK2 (human) (UniProt O75116)
ROS1 (human) = ROS1 (human) (UniProt P08922)
RPS6KA6 KD1 KD2 (human) = RPS6KA6 KD1 KD2 (human) (UniProt Q9UK32)
RPS6KB1 (human) = RPS6KB1 (human) (UniProt P23443)
SGK2 (human) = SGK2 (human) (UniProt Q9HBY8)
SLK (human) = SLK (human) (UniProt Q9H2G2)
SRMS (human) = SRMS (human) (UniProt Q9H3Y6)
SYK (human) = SYK (human) (UniProt P43405)
TAOK3 (human) = TAOK3 (human) (UniProt Q9H2K8)
TBK1 (human) = TBK1 (human) (UniProt Q9UHD2)
TGFBR1 (human) = TGFBR1 (human) (UniProt P36897)
[1] = biological target: TYK2 JH1 catalytic (human) (UniProt P29597)
ULK2 (human) = ULK2 (human) (UniProt Q8IYT8)
PDGFRB (human) = PDGFRB (human) (UniProt P09619)

Sequence of ROCK2 (human) (O75116 whole entry, looked up): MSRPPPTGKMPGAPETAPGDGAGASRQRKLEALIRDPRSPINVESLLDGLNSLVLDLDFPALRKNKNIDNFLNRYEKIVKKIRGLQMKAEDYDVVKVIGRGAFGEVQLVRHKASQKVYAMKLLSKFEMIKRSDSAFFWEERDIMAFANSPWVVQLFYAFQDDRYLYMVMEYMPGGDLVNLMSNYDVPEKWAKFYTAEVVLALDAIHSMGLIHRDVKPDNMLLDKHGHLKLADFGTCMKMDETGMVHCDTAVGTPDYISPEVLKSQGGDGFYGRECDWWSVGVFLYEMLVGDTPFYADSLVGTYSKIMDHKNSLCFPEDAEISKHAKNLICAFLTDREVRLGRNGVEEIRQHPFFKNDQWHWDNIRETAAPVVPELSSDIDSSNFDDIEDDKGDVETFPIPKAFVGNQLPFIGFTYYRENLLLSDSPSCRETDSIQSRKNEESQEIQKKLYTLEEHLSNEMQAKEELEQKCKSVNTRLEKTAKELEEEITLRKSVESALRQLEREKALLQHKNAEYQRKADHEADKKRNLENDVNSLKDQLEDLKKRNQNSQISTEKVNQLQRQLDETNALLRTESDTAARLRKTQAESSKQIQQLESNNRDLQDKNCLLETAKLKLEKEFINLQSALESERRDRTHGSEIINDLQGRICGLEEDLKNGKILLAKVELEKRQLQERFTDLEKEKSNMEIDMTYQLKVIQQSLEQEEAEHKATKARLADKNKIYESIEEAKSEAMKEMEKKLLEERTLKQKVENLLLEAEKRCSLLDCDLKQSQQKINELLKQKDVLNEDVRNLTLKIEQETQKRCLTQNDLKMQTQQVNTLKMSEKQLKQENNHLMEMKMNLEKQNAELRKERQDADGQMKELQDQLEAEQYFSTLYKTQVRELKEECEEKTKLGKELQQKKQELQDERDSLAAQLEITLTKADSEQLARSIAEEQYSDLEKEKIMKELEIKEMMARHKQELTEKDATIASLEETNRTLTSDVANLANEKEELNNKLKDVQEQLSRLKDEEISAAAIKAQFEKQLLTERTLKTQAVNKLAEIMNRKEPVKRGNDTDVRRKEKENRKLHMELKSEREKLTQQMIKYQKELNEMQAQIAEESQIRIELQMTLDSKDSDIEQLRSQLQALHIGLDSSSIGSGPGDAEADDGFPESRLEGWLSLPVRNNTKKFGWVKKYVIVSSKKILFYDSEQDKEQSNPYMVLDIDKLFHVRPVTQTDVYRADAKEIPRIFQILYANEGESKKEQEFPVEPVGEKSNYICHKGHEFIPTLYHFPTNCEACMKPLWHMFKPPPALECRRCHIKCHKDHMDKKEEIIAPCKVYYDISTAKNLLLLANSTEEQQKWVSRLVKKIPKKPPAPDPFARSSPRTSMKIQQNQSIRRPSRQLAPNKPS
Sequence of CAMKK2 (human) (Q96RR4 whole entry, looked up): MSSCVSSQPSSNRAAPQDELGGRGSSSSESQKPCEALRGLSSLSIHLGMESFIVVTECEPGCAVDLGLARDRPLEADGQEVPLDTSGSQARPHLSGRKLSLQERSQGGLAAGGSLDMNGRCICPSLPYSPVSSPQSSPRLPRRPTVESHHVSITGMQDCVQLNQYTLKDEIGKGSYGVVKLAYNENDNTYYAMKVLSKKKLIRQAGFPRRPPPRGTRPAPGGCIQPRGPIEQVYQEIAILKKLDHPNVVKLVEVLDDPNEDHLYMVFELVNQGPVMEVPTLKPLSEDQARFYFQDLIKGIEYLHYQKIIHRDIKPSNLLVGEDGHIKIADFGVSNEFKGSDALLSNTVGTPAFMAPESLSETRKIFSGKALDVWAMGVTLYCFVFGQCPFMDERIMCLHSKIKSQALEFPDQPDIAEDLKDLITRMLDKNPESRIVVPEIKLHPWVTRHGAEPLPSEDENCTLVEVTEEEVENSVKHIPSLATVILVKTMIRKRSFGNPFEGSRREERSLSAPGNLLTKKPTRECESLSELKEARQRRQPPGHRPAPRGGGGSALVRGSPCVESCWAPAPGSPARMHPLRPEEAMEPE
Sequence of PLK1 (human) (P53350 whole entry, looked up): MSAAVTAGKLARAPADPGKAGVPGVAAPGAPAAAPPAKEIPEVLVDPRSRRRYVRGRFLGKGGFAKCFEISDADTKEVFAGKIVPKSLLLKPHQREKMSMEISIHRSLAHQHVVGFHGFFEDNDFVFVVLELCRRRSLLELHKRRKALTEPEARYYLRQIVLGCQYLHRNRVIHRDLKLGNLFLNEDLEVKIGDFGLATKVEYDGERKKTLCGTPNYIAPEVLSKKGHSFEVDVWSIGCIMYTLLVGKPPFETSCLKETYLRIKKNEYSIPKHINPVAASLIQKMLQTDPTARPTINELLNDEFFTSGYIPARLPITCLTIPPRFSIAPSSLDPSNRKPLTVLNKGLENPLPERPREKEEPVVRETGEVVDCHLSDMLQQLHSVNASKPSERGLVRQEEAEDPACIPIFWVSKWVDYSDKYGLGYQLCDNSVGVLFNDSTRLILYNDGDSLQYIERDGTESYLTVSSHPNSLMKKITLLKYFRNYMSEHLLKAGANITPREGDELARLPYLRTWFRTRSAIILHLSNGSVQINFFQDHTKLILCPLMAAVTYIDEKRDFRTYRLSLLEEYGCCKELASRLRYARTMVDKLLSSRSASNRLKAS
Sequence of PAK3 (human) (O75914 whole entry, looked up): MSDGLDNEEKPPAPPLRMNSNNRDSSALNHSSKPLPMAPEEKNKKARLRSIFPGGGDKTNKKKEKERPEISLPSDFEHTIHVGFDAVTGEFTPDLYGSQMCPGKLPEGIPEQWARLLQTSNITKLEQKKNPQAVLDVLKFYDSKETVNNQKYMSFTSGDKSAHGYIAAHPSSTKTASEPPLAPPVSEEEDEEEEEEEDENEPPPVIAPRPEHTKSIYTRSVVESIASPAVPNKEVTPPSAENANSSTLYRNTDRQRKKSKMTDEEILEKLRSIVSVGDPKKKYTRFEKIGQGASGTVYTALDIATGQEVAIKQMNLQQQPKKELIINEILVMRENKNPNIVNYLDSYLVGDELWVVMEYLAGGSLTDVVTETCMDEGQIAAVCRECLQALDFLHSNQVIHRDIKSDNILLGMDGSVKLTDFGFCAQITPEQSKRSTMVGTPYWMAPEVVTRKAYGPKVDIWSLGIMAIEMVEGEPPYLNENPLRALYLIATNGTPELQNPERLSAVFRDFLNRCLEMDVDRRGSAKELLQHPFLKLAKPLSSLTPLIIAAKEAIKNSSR
Sequence of LTK (human) (P29376 whole entry, looked up): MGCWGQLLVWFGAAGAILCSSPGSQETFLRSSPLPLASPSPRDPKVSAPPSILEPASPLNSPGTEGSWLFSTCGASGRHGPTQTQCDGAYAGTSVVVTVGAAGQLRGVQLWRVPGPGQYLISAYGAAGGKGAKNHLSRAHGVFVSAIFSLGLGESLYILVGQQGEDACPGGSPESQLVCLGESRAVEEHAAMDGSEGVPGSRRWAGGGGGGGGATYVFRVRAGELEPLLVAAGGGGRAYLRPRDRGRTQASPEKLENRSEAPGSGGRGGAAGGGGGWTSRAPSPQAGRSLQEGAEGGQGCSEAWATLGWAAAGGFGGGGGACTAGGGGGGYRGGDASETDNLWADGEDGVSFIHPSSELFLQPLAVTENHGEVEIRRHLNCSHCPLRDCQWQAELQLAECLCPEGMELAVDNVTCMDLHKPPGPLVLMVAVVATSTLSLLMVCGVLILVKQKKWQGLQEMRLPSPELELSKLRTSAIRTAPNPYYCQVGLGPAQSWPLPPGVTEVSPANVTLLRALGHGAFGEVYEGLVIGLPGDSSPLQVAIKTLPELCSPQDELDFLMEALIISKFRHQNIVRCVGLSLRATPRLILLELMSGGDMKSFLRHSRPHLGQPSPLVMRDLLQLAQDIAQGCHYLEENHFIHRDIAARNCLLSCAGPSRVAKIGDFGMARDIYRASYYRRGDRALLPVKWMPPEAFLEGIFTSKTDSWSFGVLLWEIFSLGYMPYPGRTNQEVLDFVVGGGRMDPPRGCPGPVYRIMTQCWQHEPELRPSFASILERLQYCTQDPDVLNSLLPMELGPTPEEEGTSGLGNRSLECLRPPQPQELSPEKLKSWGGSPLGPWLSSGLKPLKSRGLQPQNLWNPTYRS
Sequence of CAMKK1 (human) (Q8N5S9 whole entry, looked up): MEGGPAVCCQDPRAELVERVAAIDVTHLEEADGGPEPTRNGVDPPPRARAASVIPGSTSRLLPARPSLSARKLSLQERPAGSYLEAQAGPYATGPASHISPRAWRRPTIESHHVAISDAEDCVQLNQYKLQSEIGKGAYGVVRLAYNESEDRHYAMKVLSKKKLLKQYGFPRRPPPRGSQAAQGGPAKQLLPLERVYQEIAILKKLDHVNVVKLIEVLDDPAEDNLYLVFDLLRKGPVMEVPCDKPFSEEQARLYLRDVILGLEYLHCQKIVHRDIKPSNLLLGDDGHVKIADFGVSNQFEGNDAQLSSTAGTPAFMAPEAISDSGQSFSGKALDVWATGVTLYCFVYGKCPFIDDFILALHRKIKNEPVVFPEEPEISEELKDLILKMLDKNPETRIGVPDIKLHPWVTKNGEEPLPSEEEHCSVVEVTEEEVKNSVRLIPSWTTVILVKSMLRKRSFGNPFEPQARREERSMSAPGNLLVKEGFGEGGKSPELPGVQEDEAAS
Sequence of SRMS (human) (Q9H3Y6 whole entry, looked up): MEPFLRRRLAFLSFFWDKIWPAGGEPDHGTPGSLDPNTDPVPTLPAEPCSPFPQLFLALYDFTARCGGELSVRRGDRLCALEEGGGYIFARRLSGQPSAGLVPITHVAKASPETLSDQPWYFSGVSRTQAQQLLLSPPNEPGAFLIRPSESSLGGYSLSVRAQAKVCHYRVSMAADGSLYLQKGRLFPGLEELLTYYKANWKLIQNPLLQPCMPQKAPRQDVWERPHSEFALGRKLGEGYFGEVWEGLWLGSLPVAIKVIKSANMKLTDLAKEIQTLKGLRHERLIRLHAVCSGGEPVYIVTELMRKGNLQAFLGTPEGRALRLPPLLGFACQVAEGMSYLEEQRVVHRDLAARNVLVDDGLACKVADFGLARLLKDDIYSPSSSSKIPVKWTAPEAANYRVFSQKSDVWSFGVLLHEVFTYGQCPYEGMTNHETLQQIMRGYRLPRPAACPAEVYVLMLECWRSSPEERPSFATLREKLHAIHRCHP

c1ccc(-c2n[nH]c3c2oc2ccccc23)cc1
residual activity (CAMK1D (human)): 92.9%
residual activity (CAMK1G (human)): 100%
residual activity (CAMKK1 (human)): 97%
residual activity (CAMKK2 (human)): 87.5%
residual activity (CSNK1D (human)): 93.1%
residual activity (CSNK1G2 (human)): 86.4%
residual activity (CSNK2A1 (human)): 87.2%
residual activity (DYRK4 (human)): 99.7%
residual activity (EPHA2 (human)): 105%
residual activity (FGFR3 (human)): 97.5%
residual activity (GRK6 (human)): 102%
residual activity (HIPK1 (human)): 103%
residual activity (LIMK1 (human)): 71.2%
residual activity (LTK (human)): 94.8%
residual activity (LYN (human)): 102% and 108%
residual activity (MAPK11 (human)): 95.7%
residual activity (MAPK14 (human)): 102%
residual activity (MST1R (human)): 87.4%
residual activity (NEK1 (human)): 95.2%
residual activity (NEK11 (human)): 103%
residual activity (NEK9 (human)): 99%
residual activity (PAK3 (human)): 89.2%
residual activity (PAK6 (human)): 87.5%
residual activity (PIM3 (human)): 117%
residual activity (PLK1 (human)): 106%
residual activity (PRKCA (human)): 92.9%
residual activity (PRKCH (human)): 80.9%
residual activity (PRKG2 (human)): 109%
residual activity (ROCK2 (human)): 87.3%
residual activity (ROS1 (human)): 107%
residual activity (RPS6KA6 KD1 KD2 (human)): 107%
residual activity (RPS6KB1 (human)): 99.9%
residual activity (SGK2 (human)): 93%
residual activity (SLK (human)): 107%
residual activity (SRMS (human)): 99.5%
residual activity (SYK (human)): 97.7%
residual activity (TAOK3 (human)): 94.8%
residual activity (TBK1 (human)): 105%
residual activity (TGFBR1 (human)): 94.9%
residual activity [1]: 89.2%
residual activity (ULK2 (human)): 96.4%

CC(C)N(CCC(=O)c1ccc2ccccc2c1)Cc1ccccc1
residual activity (CAMK1G (human)): 95.1%
residual activity (CAMKK1 (human)): 104%
residual activity (CAMKK2 (human)): 85.2%
residual activity (CSNK1D (human)): 97.6%
residual activity (CSNK1G2 (human)): 104%
residual activity (CSNK2A1 (human)): 98.1%
residual activity (DYRK4 (human)): 88.5%
residual activity (FGFR3 (human)): 99.8%
residual activity (GRK6 (human)): 87.1%
residual activity (HIPK1 (human)): 106%
residual activity (LIMK1 (human)): 103%
residual activity (LTK (human)): 103%
residual activity (LYN (human)): 89.3% and 98.8%
residual activity (MAPK11 (human)): 108%
residual activity (MAPK14 (human)): 94.4%
residual activity (MST1R (human)): 92.6%
residual activity (NEK1 (human)): 81.9%
residual activity (NEK11 (human)): 105%
residual activity (NEK9 (human)): 96.4%
residual activity (PAK3 (human)): 98.6%
residual activity (PAK6 (human)): 116%
residual activity (PIM3 (human)): 105%
residual activity (PLK1 (human)): 97.8%
residual activity (PRKCA (human)): 107%
residual activity (PRKCH (human)): 97.3%
residual activity (PRKG2 (human)): 139%
residual activity (ROCK2 (human)): 92.8%
residual activity (ROS1 (human)): 113%
residual activity (RPS6KA6 KD1 KD2 (human)): 97.4%
residual activity (RPS6KB1 (human)): 97.2%
residual activity (SGK2 (human)): 101%
residual activity (SLK (human)): 101%
residual activity (SRMS (human)): 103%
residual activity (SYK (human)): 101%
residual activity (TAOK3 (human)): 87.8%
residual activity (TBK1 (human)): 92.4%
residual activity (TGFBR1 (human)): 92.5%
residual activity [1]: 103%
residual activity (ULK2 (human)): 113%

O=S(=O)(c1cccc2cnccc12)N1CCCNCC1
residual activity (CAMK1D (human)): 91.5%
residual activity (CAMK1G (human)): 101%
residual activity (CAMKK1 (human)): 108%
residual activity (CAMKK2 (human)): 95.9%
residual activity (CSNK1D (human)): 99.7%
residual activity (CSNK1G2 (human)): 93.7%
residual activity (CSNK2A1 (human)): 94.9%
residual activity (DYRK4 (human)): 97.9%
residual activity (EPHA2 (human)): 102%
residual activity (FGFR3 (human)): 94.4%
residual activity (GRK6 (human)): 95.4%
residual activity (HIPK1 (human)): 96.8%
residual activity (LIMK1 (human)): 100%
residual activity (LTK (human)): 95.2%
residual activity (LYN (human)): 102% and 106%
residual activity (MAPK11 (human)): 91.9%
residual activity (MAPK14 (human)): 104%
residual activity (MST1R (human)): 92.7%
residual activity (NEK1 (human)): 90.3%
residual activity (NEK11 (human)): 114%
residual activity (NEK9 (human)): 95.9%
residual activity (PAK3 (human)): 103%
residual activity (PAK6 (human)): 87%
residual activity (PDGFRB (human)): 102%
residual activity (PIM3 (human)): 91.4%
residual activity (PLK1 (human)): 103%
residual activity (PRKCA (human)): 94.8%
residual activity (PRKCH (human)): 84%
residual activity (PRKG2 (human)): 98.9%
residual activity (ROS1 (human)): 101%
residual activity (RPS6KA6 KD1 KD2 (human)): 94%
residual activity (RPS6KB1 (human)): 76.6%
residual activity (SGK2 (human)): 91.9%
residual activity (SLK (human)): 95.8%
residual activity (SRMS (human)): 97.5%
residual activity (SYK (human)): 84.3%
residual activity (TAOK3 (human)): 97.3%
residual activity (TGFBR1 (human)): 98.4%
residual activity [1]: 81.6%
residual activity (ULK2 (human)): 101%

COc1cc2ncnc(Nc3cccc(Cl)c3)c2cc1OC
residual activity (CAMK1D (human)): 96.6%
residual activity (CAMK1G (human)): 93.6%
residual activity (CAMKK1 (human)): 92.2%
residual activity (CAMKK2 (human)): 97.5%
residual activity (CSNK1D (human)): 100%
residual activity (CSNK1G2 (human)): 97.1%
residual activity (DYRK4 (human)): 91.7%
residual activity (EPHA2 (human)): 85.2%
residual activity (FGFR3 (human)): 88.5%
residual activity (GRK6 (human)): 96.8%
residual activity (HIPK1 (human)): 98.7%
residual activity (LIMK1 (human)): 72.4%
residual activity (LTK (human)): 60.3%
residual activity (MAPK11 (human)): 97.5%
residual activity (MAPK14 (human)): 107%
residual activity (MST1R (human)): 87.8%
residual activity (NEK1 (human)): 93.1%
residual activity (NEK11 (human)): 96.9%
residual activity (NEK9 (human)): 82.6%
residual activity (PAK3 (human)): 98.9%
residual activity (PAK6 (human)): 81.6%
residual activity (PDGFRB (human)): 100%
residual activity (PIM3 (human)): 99.4%
residual activity (PLK1 (human)): 105%
residual activity (PRKCA (human)): 111%
residual activity (PRKCH (human)): 104%
residual activity (PRKG2 (human)): 92.2%
residual activity (ROCK2 (human)): 92.6%
residual activity (ROS1 (human)): 91.2%
residual activity (RPS6KA6 KD1 KD2 (human)): 90.5%
residual activity (RPS6KB1 (human)): 88.5%
residual activity (SGK2 (human)): 97.8%
residual activity (SLK (human)): 64.6%
residual activity (SRMS (human)): 93.8%
residual activity (SYK (human)): 86.9%
residual activity (TAOK3 (human)): 90.4%
residual activity (TBK1 (human)): 78%
residual activity (TGFBR1 (human)): 100%
residual activity [1]: 98.1%
residual activity (ULK2 (human)): 103%

CCN(CC)CCNC(=O)c1c(C)[nH]c(/C=C2\C(=O)Nc3ccc(F)cc32)c1C
residual activity (CAMKK1 (human)): 52.1%
residual activity (CAMKK2 (human)): 65.3%
residual activity (CSNK1D (human)): 31.8%
residual activity (CSNK2A1 (human)): 121%
residual activity (DYRK4 (human)): 104%
residual activity (EPHA2 (human)): 83.6%
residual activity (FGFR3 (human)): 39.7%
residual activity (GRK6 (human)): 74.7%
residual activity (HIPK1 (human)): 71.3%
residual activity (LIMK1 (human)): 94.3%
residual activity (LTK (human)): 34.4%
residual activity (LYN (human)): 23% and 34.6%
residual activity (MAPK11 (human)): 99.9%
residual activity (MAPK14 (human)): 105%
residual activity (MST1R (human)): 92%
residual activity (NEK1 (human)): 72.6%
residual activity (NEK11 (human)): 106%
residual activity (NEK9 (human)): 100%
residual activity (PAK6 (human)): 107%
residual activity (PDGFRB (human)): 17.6%
residual activity (PIM3 (human)): 56.8%
residual activity (PLK1 (human)): 96.4%
residual activity (PRKCA (human)): 79.9%
residual activity (PRKCH (human)): 112%
residual activity (PRKG2 (human)): 96.1%
residual activity (ROCK2 (human)): 72.1%
residual activity (ROS1 (human)): 71.6%
residual activity (RPS6KA6 KD1 KD2 (human)): 17.5%
residual activity (RPS6KB1 (human)): 42.3%
residual activity (SGK2 (human)): 93.1%
residual activity (SLK (human)): 63.8%
residual activity (SRMS (human)): 99.6%
residual activity (TAOK3 (human)): 82.9%
residual activity (TGFBR1 (human)): 101%
residual activity [1]: 52.6%
residual activity (ULK2 (human)): 40.3%

Reference: the kinase profiling compilation of Christmann-Franck et al. (2016)
